Data published in patent publication US20210171948A1, “COMPOSITIONS AND METHODS FOR TARGETING GLYPICAN-2 IN THE TREATMENT OF CANCER” (Shepherd Therapeutics, Inc., priority 2019, published 2021).
Strand notation (5' to 3'): a small letter for the sugar, then the base; units joined by * are phosphorothioate-linked, units joined directly phosphodiester-linked; [ ] holds rarer units or linkages, { } end groups; capitals alone tell only the bases. d = 2'-deoxy (DNA); r = 2'-OH (RNA)

Tests used:
CHP212 cells [1] = experiment: Cell viability after siRNA transfection, Cell Titer Glo 2.0 (Example 3); format: cell-based
Experimental: (§1) GPC2 mRNA knockdown and changes in cell viability were assessed in multiple cancer cell lines. Cells were transfected with either a scrambled control siRNA or with GPC2 siRNA sequence 3 or sequence 5 from Table 7 using the RNAiMAX Lipofectamine kit (Invitrogen, Carlsbad, Calif.) as previously described in Example 2, either in 96 well format (for viability assays) or 6 well format (for knockdown assessment). Following a 96 hour incubation period, cells were washed and the viability measurement was assessed using Cell Titer Glo 2.0. Total RNA was isolated from the 6 well plate samples to determine knockdown efficiency.

COV362 cells = experiment: as above; format: cell-based; settings: COV362 (Ovarian Carcinoma); 96 hour incubation
Experimental: as §1

GIST-T1 cells = experiment: as above; format: cell-based
Experimental: as §1

IMR32 cells = experiment: as above; format: cell-based
Experimental: as §1

MCF7 cells = experiment: as above; format: cell-based
Experimental: as §1

RH30 cells = experiment: as above; format: cell-based
Experimental: as §1

RH41 cells = experiment: as above; format: cell-based
Experimental: as §1

SKNAS cells [2] = experiment: as above; format: cell-based
Experimental: as §1

SNU16 cells = experiment: as above; format: cell-based
Experimental: as §1

TC32 cells = experiment: as above; format: cell-based
Experimental: as §1

TC71 cells = experiment: as above; format: cell-based
Experimental: as §1

TOV112D cells = experiment: as above; format: cell-based
Experimental: as §1

GPC2 mRNA = GPC2 mRNA knockdown in cell lines of the cisplatin experiment (Example 5); format: cell-based, human
Experimental: GPC2 mRNA was reduced using the indicated siRNAs and changes in cell viability were assessed in multiple cancer cell lines, in combination with Cisplatin treatment. Cells were transfected with either a scrambled control siRNA or with GPC2 siRNA sequences 3 or 5 from Table 7 using the RNAiMAX Lipofectamine kit (Invitrogen, Carlsbad, Calif.), as previously described, in either in 96 well (for viability assays) or 6 well format (for total RNA). Cisplatin was added at increasing concentrations (0 to 30 uM) to transfected cells at 24 hours post transfection. Following a 72 hour incubation period, cell viability was measured using Cell Titer Glo 2.0. Total RNA samples were also isolated to measure knockdown efficiency.

CHLA-136 cells = experiment: Cyclophosphamide IC50 in siRNA-transfected cells, Cell Titer Glo 2.0 viability (Example 7); format: cell-based
Experimental: (§2) GPC2 mRNA expression was reduced with the indicated siRNAs and changes in cell viability were assessed in multiple neuroblastoma cell lines. Cells were transfected with either a control siRNA or with GPC2 siRNA sequences 3, 5 or 7 from Table 7 using the RNAiMAX Lipofectamine kit (Invitrogen, Carlsbad, Calif.) as previously described in 96 wells for viability assays. Cyclophosphamide was added at increasing concentrations (0-20 uM) to transfected cells at 24 hr post transfection. Following a 72 hour incubation period, viability measurements were made using Cell Titer Glo 2.0.

CHLA-172 cells = experiment: as above; format: cell-based
Experimental: as §2

KELLY cells = experiment: as above; format: cell-based
Experimental: as §2

SKNAS cells [3] = experiment: as above; format: cell-based
Experimental: as §2

CHLA-90 cells = experiment: Doxorubicin IC50 in siRNA-transfected cells, Cell Titer Glo viability (Example 8); format: cell-based; settings: for IC50: CHLA-90 cells transfected with the labelled siRNA, doxorubicin added 24 hours post transfection, 72 hour incubation
Experimental: (§3) GPC2 mRNA expression was reduced and changes in cell viability were assessed in multiple neuroblastoma cell lines. Cells were transfected with either a control siRNA or with GPC-2 siRNA sequences 3, 5 or 7 from Table 7 using the RNAiMAX Lipofectamine kit (Invitrogen, Carlsbad, Calif.) as previously described in 96 wells for viability assays. Doxorubicin was added at increasing concentrations (0-5 uM) to transfected cells at 24 hours post transfection. Following a 72 hour incubation period, viability measurements were made using Cell Titer Glo.

CHP212 cells [4] = experiment: as above; format: cell-based; settings: for Data Summary: effect of knockdown on sensitivity to doxorubicin: CHP212; for IC50: CHP212 cells transfected with the labelled siRNA, doxorubicin added 24 hours post transfection, 72 hour incubation
Experimental: as §3

SH-SY5Y cells = experiment: as above; format: cell-based; settings: for IC50: SH-SY5Y cells transfected with the labelled siRNA, doxorubicin added 24 hours post transfection, 72 hour incubation
Experimental: as §3

SK-N-BE2 cells = experiment: as above; format: cell-based; settings: for IC50: SK-N-BE2 cells transfected with the labelled siRNA, doxorubicin added 24 hours post transfection, 72 hour incubation
Experimental: as §3

[5] = test system: CHP212 neuroblastoma cell line; experiment: Cell viability after siRNA transfection, 96 hour (Example 4, FIG. 4B); format: cell-based; settings: 96 hour incubation (FIG. 4B)
Experimental: The extent of GPC2 mRNA reduction was assessed with additional GPC2 siRNA sequences in the CHP212 neuroblastoma cell line. Cells were transfected with either a scrambled control siRNA or with GPC2 siRNA sequences 3 or 5, or with siRNA sequences 6-11 (Sigma) using the RNAiMAX Lipofectamine kit (Invitrogen, Carlsbad, Calif.) as previously described. Following a 96 hour incubation period, total RNA samples were collected and viability was measured in parallel plated cells.

GPC2 siRNA 3: siRNA duplex: sense CCUGCUUGGACCUCGAUAA[dT][dT] (SEQ ID NO: 207), anti-sense UUAUCGAGGUCCAAGCAGG[dT][dT] (SEQ ID NO: 208) (sense CCUGCUUGGACCUCGAUAANN; antisense UUAUCGAGGUCCAAGCAGGNN; 3' dTdT overhangs, chemistry not fully specified; listed as Homo sapiens)
% Viability (CHP212 cells [1]): 70.18%
% Viability (COV362 cells): 102.76%
% Viability (GIST-T1 cells): 70.87%
% Viability (IMR32 cells): 89.05%
% Viability (MCF7 cells): 79.67%
% Viability (RH30 cells): 79.02%
% Viability (RH41 cells): 131.49%
% Viability (SKNAS cells [2]): 84.58%
% Viability (SNU16 cells): 92.74%
% Viability (TC32 cells): 78.24%
% Viability (TC71 cells): 102.39%
% Viability (TOV112D cells): 152.77%
% GPC2 knockdown (GPC2 mRNA; CHLA-90 (Neuroblastoma)): 50%
% GPC2 knockdown (GPC2 mRNA; CHLA-136 (Neuroblastoma)): 25%
% GPC2 knockdown (GPC2 mRNA; CHLA-172 (Neuroblastoma)): 5%
% GPC2 knockdown (GPC2 mRNA; CHP212 (Neuroblastoma)): 60%
% GPC2 knockdown (GPC2 mRNA; COV362 (Ovarian cancer)): 85%
% GPC2 knockdown (GPC2 mRNA; GIST-T1 (Gastrointestinal Stromal)): 55%
% GPC2 knockdown (GPC2 mRNA; KELLY (Neuroblastoma)): 65%
% GPC2 knockdown (GPC2 mRNA; RH30 (Rhabdomyosarcoma)): 80%
% GPC2 knockdown (GPC2 mRNA; RH41 (Rhabdomyosarcoma)): 55%
% GPC2 knockdown (GPC2 mRNA; SH-SY5Y (Neuroblastoma)): 55%
% GPC2 knockdown (GPC2 mRNA; SK-N-BE2 (Neuroblastoma)): 55%
% GPC2 knockdown (GPC2 mRNA; SKNAS (Neuroblastoma)): 40%
% GPC2 knockdown (GPC2 mRNA; SNU16 (Gastric carcinoma)): 50%
% GPC2 knockdown (GPC2 mRNA; TC32 (Ewing's sarcoma)): 70%
% GPC2 knockdown (GPC2 mRNA; TC71 (Ewing's sarcoma)): 55%
% GPC2 knockdown (GPC2 mRNA; TOV112D (Ovarian cancer)): 90%
Data Summary: effect of knockdown on sensitivity to cyclophosphamide (CHLA-136 cells; CHLA-136): not increase sensitivity
IC50 (CHLA-136 cells; CHLA-136 cells transfected with the labelled siRNA, cyclophosphamide added 24 hr post transfection, 72 hour incubation): 11000 nM
Data Summary: effect of knockdown on sensitivity to cyclophosphamide (CHLA-172 cells; CHLA-172): increases sensitivity to
IC50 (CHLA-172 cells; CHLA-172 cells transfected with the labelled siRNA, cyclophosphamide added 24 hr post transfection, 72 hour incubation): 10000 nM
Data Summary: effect of knockdown on sensitivity to cyclophosphamide (KELLY cells; KELLY): increases sensitivity to
IC50 (KELLY cells; KELLY cells transfected with the labelled siRNA, cyclophosphamide added 24 hr post transfection, 72 hour incubation): 8000 nM
Data Summary: effect of knockdown on sensitivity to cyclophosphamide (SKNAS cells [3]; SKNAS): increases sensitivity to
IC50 (SKNAS cells [3]; SKNAS cells transfected with the labelled siRNA, cyclophosphamide added 24 hr post transfection, 72 hour incubation): 1370 nM
IC50 (CHLA-90 cells): 350 nM
Data Summary: effect of knockdown on sensitivity to doxorubicin (CHP212 cells [4]): does not increase sensitivity
IC50 (CHP212 cells [4]): 30 nM
IC50 (SH-SY5Y cells): 80 nM
IC50 (SK-N-BE2 cells): 1000 nM

GPC2 siRNA 7: siRNA duplex: sense CUCCUUUCUGGUUCACACA[dT][dT] (SEQ ID NO: 215), anti-sense UGUGUGAACCAGAAAGGAG[dT][dT] (SEQ ID NO: 216) (sense rCrUrCrCrUrUrUrCrUrGrGrUrUrCrArCrArCrAdTdT; antisense rUrGrUrGrUrGrArArCrCrArGrArArArGrGrArGdTdT; listed as Homo sapiens)
Viability decrease among sequences 3, 5, 6-11 [5]: greater viability decrease
Data Summary: effect of knockdown on sensitivity to doxorubicin (CHLA-90 cells; CHLA-90): increases sensitivity to
IC50 (CHLA-90 cells): 130 nM
Data Summary: effect of knockdown on sensitivity to doxorubicin (CHP212 cells [4]): does not increase sensitivity
IC50 (CHP212 cells [4]): 20 nM
Data Summary: effect of knockdown on sensitivity to doxorubicin (SH-SY5Y cells; SH-SY5Y): KD with sequence 7 increases
IC50 (SH-SY5Y cells): 30 nM
Data Summary: effect of knockdown on sensitivity to doxorubicin (SK-N-BE2 cells; SK-N-BE2): increases sensitivity to
IC50 (SK-N-BE2 cells): 200 nM
